Source: patent US20130225611A1, “Compositions and Methods for Reducing Cancer Cell Proliferation and Modulating Importin-Beta Function” (THE REGENTS OF THE UNIVERSITY OF CALIFORNIA, priority 2011, published 2013)
Converted amounts (≈) assume the structure as drawn.

Key:
[1] = biological target: T1, interaction between RanGTP and importin-β (Homo sapiens, UniProt Q14974); experiment: CFP-Ran/YFP-importin-β FRET assay; assay type: binding; settings: spectrofluorimeter retest
T1 construct: made in house; host or cells: BL21 cells (E. coli)
Experimental: A reverse chemical genetic high-throughput screen (HTS) was performed to identify compounds that affect the interaction between RanGTP and importin-β using a fluorescence resonance energy transfer (FRET)-based assay with cyan fluorescent protein (CFP)-tagged Ran and yellow fluorescent protein (YFP)-tagged importin-β. These proteins bind one another only when CFP-Ran is guanosine triphosphate (GTP)-bound, which can be detected by changes in FRET (FIG. 1A and FIG. 1B). When CFP-Ran is incubated with RCC1, GTP, and YFP-importin-β, and the mixture is excited with 435 nm fluorescence in a fluorometer, a strong FRET signal is generated, as indicated by a decrease in the fluorescence intensity at 475 nm (the emission wavelength of CFP) and an increase in the fluorescence intensity at 525 nm (the emission wavelength of YFP). No FRET signal is generated if GDP is substituted for GTP, and nucleotide-specific interaction could also be observed biochemically, as S-tagged YFP-importin-β pulls CFP-Ran out of solution only in the presence of GTP. […]
The following reaction buffer was used for all FRET assays, including the high-throughput screen: 1× phosphate buffered saline (PBS), 5% glycerol, 2 mM MgCl2, 1 mM dithiothreitol (DTT), 0.01% NP-40. […] The reaction was excited using a Fluorolog 3 spectrofluorometer with 435 nm fluorescence and the emission was read between 460 nm and 550 nm. […]

solubility in water = assay type: physicochemical
[2] = system: importin-β/RanGTP-mediated nuclear import; experiment: nuclear import of GFP-NLS reporter in permeabilized HeLa cells; assay type: cell-based, human; settings: 100 μM importazole, permeabilized HeLa cells plus Xenopus egg extract
Experimental: Because importazole binds importin-β and affects the RanGTP/importin-β interaction, importazole was tested to determine whether it inhibits the nuclear import of any protein bearing a classical nuclear localization signal (NLS). This was first tested using permeabilized HeLa cells, in which nuclear import of a GFP-NLS reporter can be reconstituted in vitro. Digitonin-permeabilized cells were incubated with a GFP-NLS reporter plus Xenopus laevis egg extracts as a source of soluble transport factors including Ran, importin-α, and importin-β.
HeLa cells were permeabilized and treated with an import reporter and cytosol from Xenopus laevis […] as described by Adam et al. (1990) J. Cell Biol. 111:807-816.

[3] = system: nuclear import mediated by transportin; experiment: nuclear import of M9-YFP in permeabilized HeLa cells; assay type: cell-based, human; settings: permeabilized HeLa cells plus Xenopus egg extract
HeLa cells [4] = experiment: HeLa cell viability assay (CellTiter-Glo); assay type: cell-based; settings: Homo sapiens, treatment over a 24-hour period
Experimental: For HeLa cell viability assays to obtain an IC50, 10,000 actively growing HeLa cells per well were transferred to opaque white 96 well tissue culture plates at a final volume of 100 μl per well in DMEM plus 4% fetal bovine serum and 1% penicillin/streptomycin. Cells were allowed to grow at 37° C. for 24 hours. Individual wells were then treated for 12 hours with one of the following conditions: 1% DMSO, 5, 10, 20, 30, 40, 50, 60, 75, 100 μM IPZ. Following this treatment, the media was replaced and cells were treated for another 12 hours under the same conditions. The plates were then allowed to equilibrate to room temperature for 30 min, after which 100 μl of room temperature CellTiter-Glo reagent from the Promega CellTiter-Glo Luminescent Cell Viability Assay kit was added to each well. Plates were shaken for 2 min, incubated at room temperature for 10 min, then read on a luminometer. The average background signal for the plate was subtracted from the value of each individual well, and the resulting values were normalized to the signal level of the DMSO containing well.

HeLa cells [5] = experiment: mitotic spindle defects in HeLa cells (tubulin and DNA staining); assay type: cell-based, human; settings: HeLa cells treated for one hour
Experimental: To examine the consequences of importazole on mitosis, HeLa cells treated for one hour were fixed and stained for tubulin and chromosomes. […] Spindle positioning was not previously attributed to the Ran pathway and this phenotype may be a consequence of astral microtubule disruption by importazole.
Cells were fixed in 4% formaldehyde and 0.1% glutaraldehyde in PHEM (60 mM PIPES, 25 mM HEPES, 10 mM EGTA, 2 mM MgSO4) at 37° C. for 15 minutes followed by permeabilization with 0.1% triton X-100 for 2 minutes at room temperature. Cells were then washed and blocked (PHEM+5% FBS+0.2% saponin) and stained by standard techniques using the E7-A anti β tubulin antibody (Developmental Studies Hybridoma Bank) diluted 1:1000 and Hoechst dye.

effect on FRET signal generated by CFP-Ran and YFP-importin-β [1]: reproducibly disrupted the FRET signal
solubility (solubility in water): ~100 µM (≈ 31.8 µg/mL)
IC50 (HeLa cells [4]): ~22.5 µM
SMILES: CC(Nc1nc(N2CCCC2)nc2ccccc12)c1ccccc1 (stereo not shown) [importazole, (1-phenyl-ethyl)-(2-pyrrolidin-1-yl-quinazolin-4-yl)-amine]
nuclear import of GFP-NLS reporter [2]: blocked import
transportin-mediated nuclear import (M9-YFP) [3]: did not block nuclear import
cells displaying off-center spindles (HeLa cells [5]): more than 40%
defects in spindle assembly, chromosome alignment and spindle size (HeLa cells [5]; 0 to 40 μM): dose-dependent defects
